Laboratory results as given in patent US5776903A, “Peptide derivatives usable as zinc endopeptidase 24-15 inhibitors” (Commissariat A l'Energie Atomique, priority 1995, dated 1998).

Columns and labels:
endopeptidase 24-15 = endopeptidase 24-15 (Rattus norvegicus, UniProt P24155); assay: Inhibition of neurotensin degradation by purified endopeptidase 24-15 (HPLC), inhibition constant Ki; conditions: for SELECTIVITY (ratio Ki24-16 /Ki24-15): selectivity relative to endopeptidase 24-16; for Ki expected for one of the diastereoisomers of the mixture: extrapolated from Ki of the mixture of 4 diastereoisomers; for affinity difference / power factor relative to Cpp-Ala-Pro-Phe-pAb: for the expected single diastereoisomer versus known inhibitor (Ki 7 nM)
Procedure: Incubation takes place for 1 hour at 37° C. of 2 nmole (20 μmole/l) of neurotensin, which is a known endopeptidase 24-15 substrate, with 7 μg of purified endopeptidase 24-15 in a final volume of 100 μl of tris-HCl buffer, 50 nM, pH 7.5, in the absence of an inhibitor (control) or in the presence of the peptide tested at concentrations from 10^-11 to 10^-7 mole/l. After 1 hour incubation analysis takes place of the solutions by HPLC. On the basis of this analysis the inhibition constant Ki of the tested peptide is determined.

endopeptidase 24-16 = endopeptidase 24-16 (Homo sapiens, UniProt Q9BYT8); assay: Inhibition of neurotensin degradation by purified endopeptidase 24-16 (HPLC), inhibition constant Ki; type: biochemical; conditions: neurotensin 20 μmole/l, 1 hour at 30° C., tris-HCl pH 7.5
Procedure: This example studies the inhibiting effect of the peptides of the invention with respect to endopeptidase 24-16.
To this end, incubation takes place for 1 hour at 30° C. of 2 nmole (20 μmole/l) of neurotensin, which is a known endopeptidase 24-16 substrate with 8 μg of endopeptidase 24-16 purified in a final volume of 100 μl of tris-HCl buffer, 50 mM, pH 7.5, in the absence of peptide (control) or in the presence of the peptide tested at concentrations from 10^-11 to 10^-7 mole/l. After 1 hour of incubation analysis takes place of the solutions by HPLC and the inhibition constant Ki of the tested peptide is determined.

[1] = biological target: endopeptidase 24-15 of the rat (Rattus norvegicus, UniProt P24155); conditions: as described by Dando et al; read-out: inhibition constant Ki with respect to endopeptidase 24-15 of the rat; cited from earlier work
Chain of endopeptidase 24-15 of the rat (P24155 whole entry): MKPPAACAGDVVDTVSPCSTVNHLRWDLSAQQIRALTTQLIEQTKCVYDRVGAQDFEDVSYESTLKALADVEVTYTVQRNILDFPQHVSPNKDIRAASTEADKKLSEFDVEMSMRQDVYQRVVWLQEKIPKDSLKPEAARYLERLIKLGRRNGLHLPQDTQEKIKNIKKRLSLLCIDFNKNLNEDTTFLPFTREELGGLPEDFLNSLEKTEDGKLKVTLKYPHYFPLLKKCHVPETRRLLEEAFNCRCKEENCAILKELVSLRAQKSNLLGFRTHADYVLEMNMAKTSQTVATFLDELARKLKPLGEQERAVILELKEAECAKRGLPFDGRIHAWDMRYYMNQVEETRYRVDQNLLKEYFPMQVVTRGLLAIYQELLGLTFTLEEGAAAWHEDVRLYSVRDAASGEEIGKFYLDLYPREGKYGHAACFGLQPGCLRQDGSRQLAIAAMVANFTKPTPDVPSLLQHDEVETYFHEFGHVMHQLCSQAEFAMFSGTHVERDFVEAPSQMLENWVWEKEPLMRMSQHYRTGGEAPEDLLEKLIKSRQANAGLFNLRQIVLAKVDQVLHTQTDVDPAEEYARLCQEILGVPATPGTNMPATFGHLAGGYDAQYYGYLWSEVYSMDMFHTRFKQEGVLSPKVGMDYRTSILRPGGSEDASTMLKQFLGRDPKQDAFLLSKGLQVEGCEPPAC

Chain of endopeptidase 24-16 (Q9BYT8 38-704): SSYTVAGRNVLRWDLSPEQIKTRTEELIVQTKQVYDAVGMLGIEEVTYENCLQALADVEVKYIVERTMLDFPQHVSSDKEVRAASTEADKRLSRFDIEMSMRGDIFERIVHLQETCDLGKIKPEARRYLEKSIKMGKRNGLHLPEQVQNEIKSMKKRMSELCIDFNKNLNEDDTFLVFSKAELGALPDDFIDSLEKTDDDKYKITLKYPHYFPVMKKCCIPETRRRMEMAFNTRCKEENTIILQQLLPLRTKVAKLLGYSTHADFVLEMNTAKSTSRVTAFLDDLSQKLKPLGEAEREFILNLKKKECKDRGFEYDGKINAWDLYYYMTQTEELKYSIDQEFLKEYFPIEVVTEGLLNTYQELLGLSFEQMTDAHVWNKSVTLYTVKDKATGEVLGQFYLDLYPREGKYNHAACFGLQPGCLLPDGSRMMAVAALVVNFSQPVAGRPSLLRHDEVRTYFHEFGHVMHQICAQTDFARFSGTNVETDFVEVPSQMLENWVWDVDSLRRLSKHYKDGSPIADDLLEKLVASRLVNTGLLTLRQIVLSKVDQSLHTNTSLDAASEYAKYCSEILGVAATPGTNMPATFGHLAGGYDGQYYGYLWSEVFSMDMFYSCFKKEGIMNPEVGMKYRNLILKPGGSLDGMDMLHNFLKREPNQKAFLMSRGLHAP
Chain of endopeptidase 24-15 (P24155 whole entry): as the sequence (P24155 whole entry) above

Compound | Ki (endopeptidase 24-15) [nM] | SELECTIVITY (ratio Ki24-16 /Ki24-15) (endopeptidase 24-15) | Ki (endopeptidase 24-16) [nM] | Ki expected for one of the diastereoisomers of the mixture (endopeptidase 24-15) | affinity difference / power factor relative to Cpp-Ala-Pro-Phe-pAb (endopeptidase 24-15) | Ki [1] [nM]
N=C(N)NCCC[C@H](NC(=O)CCP(=O)(O)C(Cc1ccccc1)NC(=O)OCc1ccccc1)C(=O)N[C@@H](CC(N)=O)C(=O)O (mixture of isomers) [compound 13, Z--Phe .PSI. (PO2 CH2)Gly--Arg--Asn] | 19.5 | 71 | 1380 | – | – | –
N=C(N)NCCC[C@H](NC(=O)CCP(=O)(O)C(Cc1ccccc1)NC(=O)OCc1ccccc1)C(=O)N[C@@H](Cc1c[nH]cn1)C(=O)O (mixture of isomers) [compound 14, Z--Phe .PSI. (PO2 CH2)Gly--Arg--His] | 23.2 | 129 | 3010 | – | – | –
C[C@@H](O)[C@H](NC(=O)[C@H](CCCNC(=N)N)NC(=O)CCP(=O)(O)C(Cc1ccccc1)NC(=O)OCc1ccccc1)C(=O)O (mixture of isomers) [compound 17, Z--Phe .PSI. (PO2 CH2)Gly--Arg--Thr] | 35.2 | 103 | 3640 | – | – | –
N=C(N)NCCC[C@H](NC(=O)CCP(=O)(O)C(Cc1ccccc1)NC(=O)OCc1ccccc1)C(=O)N[C@@H](CCCCN)C(=O)O (mixture of isomers) [compound 18, Z--Phe .PSI. (PO2 CH2)Gly--Arg--Lys] | 138 | 186 | 25700 | – | – | –
N=C(N)NCCC[C@H](NC(=O)CCP(=O)(O)C(Cc1ccccc1)NC(=O)OCc1ccccc1)C(=O)N[C@@H](CCC(=O)O)C(=O)O (mixture of isomers) [compound 19, Z--Phe .PSI. (PO2 CH2)Gly--Arg--Glu] | 163 | 50 | 8150 | – | – | –
N=C(N)NCCC[C@H](NC(=O)CCP(=O)(O)C(Cc1ccccc1)NC(=O)OCc1ccccc1)C(=O)N[C@@H](CC(=O)O)C(=O)O (mixture of isomers) [compound 20, Z--Phe .PSI. (PO2 CH2)Gly--Arg--Asp] | 352 | 58 | 20400 | – | – | –
N=C(N)NCCC[C@H](NC(=O)CCP(=O)(O)C(Cc1ccccc1)NC(=O)OCc1ccccc1)C(=O)N1CCC[C@H]1C(=O)O (mixture of isomers) [compound 21, Z--Phe .PSI. (PO2 CH2)Gly--Arg--Pro] | 3520 | 10 | 36700 | – | – | –
CSCC[C@H](NC(=O)[C@H](CCCCN)NC(=O)C(C)CP(=O)(O)C(Cc1ccccc1)NC(=O)OCc1ccccc1)C(=O)O (mixture of isomers) [compound 22, Z--Phe .PSI. (PO2 CH2)Ala--Lys--Met] | 0.115 | 1957 | 225 | – | – | –
CCCC[C@H](NC(=O)[C@H](CCCCN)NC(=O)C(C)CP(=O)(O)C(Cc1ccccc1)NC(=O)OCc1ccccc1)C(=O)O (mixture of isomers) [compound 23, Z--Phe .PSI. (PO2 CH2)Ala--Lys--Nle] | 0.63 | 257 | 162 | – | – | –
CC(CP(=O)(O)C(Cc1ccccc1)NC(=O)OCc1ccccc1)C(=O)N[C@@H](CCCCN)C(=O)N[C@@H](C)C(=O)O (mixture of isomers) [compound 24, Z--Phe .PSI. (PO2 CH2)Ala--Lys--Ala] | 0.83 | 525 | 436 | – | – | –
CC(CP(=O)(O)C(Cc1ccccc1)NC(=O)OCc1ccccc1)C(=O)N[C@@H](CCCCN)C(=O)N[C@@H](Cc1ccccc1)C(=O)O (mixture of isomers) [compound 25, Z--Phe .PSI. (PO2 CH2)Ala--Lys--Phe] | 1 | 1652 | 1650 | – | – | –
CC(C)C[C@H](NC(=O)[C@H](CCCCN)NC(=O)C(C)CP(=O)(O)C(Cc1ccccc1)NC(=O)OCc1ccccc1)C(=O)O (mixture of isomers) [compound 26, Z--Phe .PSI. (PO2 CH2)Ala--Lys--Leu] | 1.82 | 491 | 893 | – | – | –
CC[C@H](C)[C@H](NC(=O)[C@H](CCCCN)NC(=O)C(C)CP(=O)(O)C(Cc1ccccc1)NC(=O)OCc1ccccc1)C(=O)O (mixture of isomers) [compound 27, Z--Phe .PSI. (PO2 CH2)Ala--Lys--Ile] | 1.94 | 652 | 1260 | – | – | –
CSCC[C@H](NC(=O)[C@H](CCCNC(=N)N)NC(=O)C(C)CP(=O)(O)C(Cc1ccccc1)NC(=O)OCc1ccccc1)C(=O)O (mixture of isomers) [compound 42, Z--Phe .PSI. (PO2 CH2)Ala--Arg--Met] | 0.067 | 1312 | 88 | approximately 15 pM | 440 | –
CC(CP(=O)(O)C(Cc1ccccc1)NC(=O)OCc1ccccc1)C(=O)N[C@@H](CCCNC(=N)N)C(=O)N[C@@H](Cc1ccccc1)C(=O)O (mixture of isomers) [compound 43, Z--Phe .PSI. (PO2 CH2)Ala--Arg--Phe] | 0.158 | 3335 | 527 | approximately 40 pM | approximately 175 | –
CC(C)CC(CP(=O)(O)C(Cc1ccccc1)NC(=O)OCc1ccccc1)C(=O)N[C@@H](CCCNC(=N)N)C(=O)N[C@@H](Cc1ccccc1)C(=O)O (mixture of isomers) [compound 44, Z--Phe .PSI. (PO2 CH2)Leu--Arg--Phe] | 14 | 164 | 2290 | – | – | –
Cpp-Ala-Pro-Phe-pAb | – | – | – | – | – | 7
